Assays:
Test in all cases: cells
[1] = system: L-428; type: functional, cell-based, Homo sapiens; conditions: Homo sapiens, L-428
Description: SANGER: Inhibition of human L-428 cell growth in a cell viability assay.

[2] = system: CTV-1; type: functional, cell-based, Homo sapiens; conditions: Homo sapiens, CTV-1;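 further: growth inhibition of the cell line, read out with a cell viability assay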
Description: SANGER: Inhibition of human CTV-1 cell growth in a cell viability assay.

[3] = system: RS4-11; type: functional, cell-based, Homo sapiens; conditions: Homo sapiens, RS4-11;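 further: growth inhibition of RS4-11 cells, read out by a cell viability assay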
Description: SANGER: Inhibition of human RS4-11 cell growth in a cell viability assay.

[4] = system: JVM-3; type: functional, cell-based, Homo sapiens; conditions: Homo sapiens, JVM-3;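 further: growth inhibition of human JVM-3 cells, read out with a cell viability assay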
Description: SANGER: Inhibition of human JVM-3 cell growth in a cell viability assay.

[5] = system: MS-1; type: functional, cell-based, Homo sapiens; conditions: Homo sapiens, MS-1;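 further: growth inhibition of MS-1 cells, read out by cell viability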
Description: SANGER: Inhibition of human MS-1 cell growth in a cell viability assay.

[6] = system: MN-60; type: functional, cell-based, Homo sapiens; conditions: Homo sapiens, MN-60;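 further: growth inhibition of the MN-60 cell line, determined with a cell viability assay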
Description: SANGER: Inhibition of human MN-60 cell growth in a cell viability assay.

[7] = system: NOMO-1; type: functional, cell-based, Homo sapiens; conditions: Homo sapiens, NOMO-1;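 further: growth inhibition of human NOMO-1 cells measured by a cell viability assay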
Description: SANGER: Inhibition of human NOMO-1 cell growth in a cell viability assay.

[8] = system: K562; type: functional, cell-based, Homo sapiens; conditions: Homo sapiens, K562
[9] = system: MZ2-MEL; type: functional, cell-based, Homo sapiens; conditions: Homo sapiens, MZ2-MEL;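 further: growth inhibition of MZ2-MEL cells read out with a cell viability assay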
Description: SANGER: Inhibition of human MZ2-MEL cell growth in a cell viability assay.

[10] = system: ES5; type: functional, cell-based, Homo sapiens; conditions: Homo sapiens, ES5;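 further: growth inhibition of human ES5 cells, read out by a cell viability assay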
Description: SANGER: Inhibition of human ES5 cell growth in a cell viability assay.

[11] = system: SW684; type: functional, cell-based, Homo sapiens; conditions: Homo sapiens, SW684;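 further: growth inhibition of human SW684 cells, measured by a cell viability assay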
[12] = system: KM-H2; type: functional, cell-based, Homo sapiens; conditions: Homo sapiens, KM-H2;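 further: growth inhibition of KM-H2 cells, read out by a cell viability assay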
Description: SANGER: Inhibition of human KM-H2 cell growth in a cell viability assay.

[13] = system: C8166; type: functional, cell-based, Homo sapiens; conditions: Homo sapiens, C8166;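 further: growth inhibition of human C8166 cells measured by a cell viability assay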
Description: SANGER: Inhibition of human C8166 cell growth in a cell viability assay.

[14] = system: SW 954; type: functional, cell-based, Homo sapiens; conditions: Homo sapiens, SW 954;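 further: growth inhibition of SW954 human cancer cells, read out as cell viability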
Description: SANGER: Inhibition of human SW954 cell growth in a cell viability assay.

[15] = system: NB69; type: functional, cell-based, Homo sapiens; conditions: Homo sapiens, NB69;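 further: growth inhibition of NB69 cells, determined by a cell viability assay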
Description: SANGER: Inhibition of human NB69 cell growth in a cell viability assay.

[16] = system: NB13; type: functional, cell-based, Homo sapiens; conditions: Homo sapiens, NB13;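 further: cell viability readout measuring growth inhibition of human NB13 cells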
Description: SANGER: Inhibition of human NB13 cell growth in a cell viability assay.

[17] = system: TE-11; type: functional, cell-based; conditions: Homo sapiens;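 further: growth inhibition of human TE-11 cells, read out by a cell viability assay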
Description: SANGER: Inhibition of human TE-11 cell growth in a cell viability assay.

[18] = system: HCC2218; type: functional, cell-based, Homo sapiens; conditions: Homo sapiens, HCC2218;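 further: cell viability assay read-out, with IC50 given as the concentration that inhibits growth of the cell line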
Description: SANGER: Inhibition of human HCC2218 cell growth in a cell viability assay.

[19] = system: NCI-H1648; type: functional, cell-based, Homo sapiens; conditions: Homo sapiens, NCI-H1648;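 further: cell viability assay measuring inhibition of NCI-H1648 cell growth, from the Sanger screening data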
Description: SANGER: Inhibition of human NCI-H1648 cell growth in a cell viability assay.

[20] = system: LS-411N; type: functional, cell-based, Homo sapiens; conditions: Homo sapiens, LS-411N
[21] = system: MOLT-16; type: functional, cell-based, Homo sapiens; conditions: Homo sapiens, MOLT-16;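 further: growth inhibition of human MOLT-16 cells, read out with a cell viability assay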
Description: SANGER: Inhibition of human MOLT-16 cell growth in a cell viability assay.

[22] = system: NCI-H2126; type: functional, cell-based, Homo sapiens; conditions: Homo sapiens, NCI-H2126;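 further: growth inhibition of the cancer cell line, determined with a cell viability readout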
[23] = system: TE-6; type: functional, cell-based, Homo sapiens; conditions: Homo sapiens, TE-6;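 further: growth inhibition of TE-6 cells, read out with a cell viability assay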
Description: SANGER: Inhibition of human TE-6 cell growth in a cell viability assay.

[24] = system: DB; type: functional, cell-based, Homo sapiens; conditions: Homo sapiens, DB
Description: SANGER: Inhibition of human DB cell growth in a cell viability assay.

[25] = system: SNU-C2B; type: functional, cell-based; conditions: Homo sapiens;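 further: cell viability readout used to measure compound-driven suppression of SNU-C2B cell proliferation, IC50 marking half-maximal growth inhibition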
Description: SANGER: Inhibition of human SNU-C2B cell growth in a cell viability assay.

[26] = system: OMC-1; type: functional, cell-based, Homo sapiens; conditions: Homo sapiens, OMC-1;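 further: growth inhibition of the OMC-1 cell line, measured by a cell viability assay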
Description: SANGER: Inhibition of human OMC-1 cell growth in a cell viability assay.

[27] = system: SCH; type: functional, cell-based, Homo sapiens; conditions: Homo sapiens, SCH;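 further: growth inhibition of human SCH cells, read out in a cell viability assay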
Description: SANGER: Inhibition of human SCH cell growth in a cell viability assay.

[28] = system: COLO-320-HSR; type: functional, cell-based, Homo sapiens; conditions: Homo sapiens, COLO-320-HSR;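 further: growth inhibition of COLO-320-HSR cells, determined with a cell viability assay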
Description: SANGER: Inhibition of human COLO-320-HSR cell growth in a cell viability assay.

[29] = system: Becker; type: functional, cell-based, Homo sapiens; conditions: Homo sapiens, Becker;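 further: growth inhibition of Becker cells, read out with a cell viability assay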
Description: SANGER: Inhibition of human Becker cell growth in a cell viability assay.

[30] = system: LB771-HNC; type: functional, cell-based; conditions: Homo sapiens;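 further: growth inhibition of LB771-HNC human cells, read out with a cell viability assay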
[31] = system: ES3; type: functional, cell-based, Homo sapiens; conditions: Homo sapiens, ES3;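 further: growth inhibition of ES3 cells, read out with a cell viability assay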
Description: SANGER: Inhibition of human ES3 cell growth in a cell viability assay.

[32] = system: SK-MEL-2; type: functional, cell-based, Homo sapiens; conditions: Homo sapiens, SK-MEL-2;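 further: growth inhibition of human SK-MEL-2 cells measured with a cell viability assay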
Description: SANGER: Inhibition of human SK-MEL-2 cell growth in a cell viability assay.

[33] = system: ALL-PO; type: functional, cell-based, Homo sapiens; conditions: Homo sapiens, ALL-PO;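 further: growth inhibition of ALL-PO cells, read out by a cell viability assay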
Description: SANGER: Inhibition of human ALL-PO cell growth in a cell viability assay.

[34] = system: BT-474; type: functional, cell-based, Homo sapiens; conditions: Homo sapiens, BT-474
Description: SANGER: Inhibition of human BT-474 cell growth in a cell viability assay.

[35] = system: COLO-668; type: functional, cell-based, Homo sapiens; conditions: Homo sapiens, COLO-668
Description: SANGER: Inhibition of human COLO-668 cell growth in a cell viability assay.

[36] = system: EOL1; type: functional, cell-based, Homo sapiens; conditions: Homo sapiens, EOL1;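 further: growth inhibition of EoL-1 cells, read out by a cell viability assay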
[37] = system: COR-L88; type: functional, cell-based, Homo sapiens; conditions: Homo sapiens, COR-L88;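 further: growth inhibition of COR-L88 cells, read out with a cell viability assay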
Description: SANGER: Inhibition of human COR-L88 cell growth in a cell viability assay.

[38] = system: LB2241-RCC; type: functional, cell-based, Homo sapiens; conditions: Homo sapiens, LB2241-RCC;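 further: cell viability assay measuring how strongly the cultured human renal carcinoma line is prevented from growing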
[39] = system: Calu-6; type: functional, cell-based, Homo sapiens; conditions: Homo sapiens, Calu-6;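 further: growth of human Calu-6 cells, read out by a cell viability assay, IC50 marking inhibition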
Description: SANGER: Inhibition of human Calu-6 cell growth in a cell viability assay.

[40] = system: COLO-824; type: functional, cell-based, Homo sapiens; conditions: Homo sapiens, COLO-824
Description: SANGER: Inhibition of human COLO-824 cell growth in a cell viability assay.

[41] = system: NCI-H1304; type: functional, cell-based, Homo sapiens; conditions: Homo sapiens, NCI-H1304;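 further: growth inhibition of the cancer cell line, measured in a cell viability assay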
Description: SANGER: Inhibition of human NCI-H1304 cell growth in a cell viability assay.

[42] = system: SNU-5; type: functional, cell-based, Homo sapiens; conditions: Homo sapiens, SNU-5;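 further: cell viability readout used to measure growth inhibition in human NCI-SNU-5 cells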
Description: SANGER: Inhibition of human NCI-SNU-5 cell growth in a cell viability assay.

[43] = system: NB6; type: functional, cell-based, Homo sapiens; conditions: Homo sapiens, NB6;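 further: growth inhibition of NB6 cells, read out by a cell viability assay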
Description: SANGER: Inhibition of human NB6 cell growth in a cell viability assay.

[44] = system: RH-1; type: functional, cell-based, Homo sapiens; conditions: Homo sapiens, RH-1;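 further: growth inhibition of human RH-1 cells, read out with a cell viability assay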
Description: SANGER: Inhibition of human RH-1 cell growth in a cell viability assay.

[45] = system: NCI-H1155; type: functional, cell-based, Homo sapiens; conditions: Homo sapiens, NCI-H1155;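 further: cell growth inhibition measured by a viability assay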
Description: SANGER: Inhibition of human NCI-H1155 cell growth in a cell viability assay.

[46] = system: TE-1; type: functional, cell-based, Homo sapiens; conditions: Homo sapiens, TE-1;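 further: growth inhibition of the human TE-1 cell line, read out with a cell viability assay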
[47] = system: KU812 cell line; type: functional, cell-based, Homo sapiens; conditions: Homo sapiens, KU812;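 further: growth inhibition of KU812 cells, read out with a cell viability assay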
Description: SANGER: Inhibition of human KU812 cell growth in a cell viability assay.

[48] = system: NKM-1; type: functional, cell-based, Homo sapiens; conditions: Homo sapiens, NKM-1;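 further: growth inhibition of NKM-1 cells, read out with a cell viability assay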
Description: SANGER: Inhibition of human NKM-1 cell growth in a cell viability assay.

[49] = system: NCI-H1299; type: functional, cell-based; conditions: Homo sapiens;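 further: growth inhibition of human NCI-H1299 cells, read out by a cell viability assay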
Description: SANGER: Inhibition of human NCI-H1299 cell growth in a cell viability assay.

NC(=O)c1cccc(-c2cc(Nc3ccc(OC(F)(F)F)cc3)ncn2)c1
IC50 [1]: > 1.28 µM | IC50 [2]: > 1.28 µM | IC50 [3]: > 1.28 µM | IC50 [4]: > 1.28 µM | IC50 [5]: > 1.28 µM | IC50 [6]: > 1.28 µM | IC50 [7]: > 1.28 µM | IC50 [8]: 0.361 µM | IC50 [9]: > 1.28 µM | IC50 [10]: > 1.28 µM | IC50 ([11]; read-out: IC50): > 1.28 µM | IC50 [12]: > 1.28 µM | IC50 [13]: > 1.28 µM | IC50 [14]: > 1.28 µM | IC50 [15]: > 1.28 µM | IC50 [16]: > 1.28 µM | IC50 [17]: > 1.28 µM | IC50 [18]: > 1.28 µM | IC50 [19]: > 1.28 µM | IC50 [20]: > 1.28 µM | IC50 [21]: > 1.28 µM | IC50 [22]: > 1.28 µM | IC50 [23]: > 1.28 µM | IC50 [24]: > 1.28 µM | IC50 [25]: > 1.28 µM | IC50 [26]: > 1.28 µM | IC50 [27]: > 1.28 µM | IC50 [28]: > 1.28 µM | IC50 [29]: > 1.28 µM | IC50 [30]: > 1.28 µM | IC50 [31]: > 1.28 µM | IC50 [32]: > 1.28 µM | IC50 [33]: > 1.28 µM | IC50 [34]: > 1.28 µM | IC50 [35]: > 1.28 µM | IC50 [36]: > 1.28 µM | IC50 [37]: > 1.28 µM | IC50 [38]: > 1.28 µM | IC50 [39]: > 1.28 µM | IC50 [40]: > 1.28 µM | IC50 [41]: > 1.28 µM | IC50 [42]: > 1.28 µM | IC50 [43]: > 1.28 µM | IC50 [44]: > 1.28 µM | IC50 [45]: > 1.28 µM | IC50 [46]: > 1.28 µM | IC50 [47]: > 1.28 µM | IC50 [48]: > 1.28 µM

Cc1ccc(NC(=O)c2ccc(CN3CCN(C)CC3)cc2)cc1Nc1nccc(-c2cccnc2)n1 [IMATINIB]
IC50 [1]: > 2 µM | IC50 [2]: > 2 µM | IC50 [3]: > 2 µM | IC50 [4]: > 2 µM | IC50 [5]: > 2 µM | IC50 [6]: > 2 µM | IC50 [7]: > 2 µM | IC50 [8]: 0.224 µM | IC50 [9]: > 2 µM | IC50 [10]: > 2 µM | IC50 [11]: > 2 µM | IC50 [12]: > 2 µM | IC50 [13]: > 2 µM | IC50 [14]: > 2 µM | IC50 [15]: > 2 µM | IC50 [16]: > 2 µM | IC50 [17]: > 2 µM | IC50 [49]: > 2 µM | IC50 [18]: > 2 µM | IC50 [19]: > 2 µM | IC50 [20]: > 2 µM | IC50 [21]: > 2 µM | IC50 [22]: > 2 µM | IC50 [23]: > 2 µM | IC50 [24]: > 2 µM | IC50 [25]: > 2 µM | IC50 [26]: > 2 µM | IC50 [28]: > 2 µM | IC50 [29]: > 2 µM | IC50 [30]: > 2 µM | IC50 [31]: > 2 µM | IC50 [32]: > 2 µM | IC50 [33]: > 2 µM | IC50 [34]: > 2 µM | IC50 [35]: > 2 µM | IC50 [36]: > 2 µM | IC50 [37]: > 2 µM | IC50 [38]: > 2 µM | IC50 [39]: > 2 µM | IC50 [40]: > 2 µM | IC50 [41]: > 2 µM | IC50 [42]: > 2 µM | IC50 [43]: > 2 µM | IC50 [44]: > 2 µM | IC50 [45]: > 2 µM | IC50 [46]: > 2 µM | IC50 [47]: > 2 µM | IC50 [48]: > 2 µM

COc1ccc(N(C(=O)Oc2c(C)cccc2C)c2ccnc(Nc3ccc(N4CCN(C)CC4)cc3)n2)c(OC)c1
IC50 [1]: > 5.12 µM | IC50 [2]: < 0.02 µM | IC50 [3]: > 5.12 µM | IC50 [4]: > 5.12 µM | IC50 [5]: > 5.12 µM | IC50 [6]: > 5.12 µM | IC50 [7]: > 5.12 µM | IC50 [8]: < 0.02 µM | IC50 [9]: 3.09 µM | IC50 [10]: > 5.12 µM | IC50 ([11]; read-out: IC50): 0.326 µM | IC50 [12]: > 5.12 µM | IC50 [13]: > 5.12 µM | IC50 [14]: 0.372 µM | IC50 [15]: > 5.12 µM | IC50 [16]: > 5.12 µM | IC50 [17]: > 5.12 µM | IC50 [18]: > 5.12 µM | IC50 [19]: 0.516 µM | IC50 [20]: > 5.12 µM | IC50 [21]: > 5.12 µM | IC50 [22]: > 5.12 µM | IC50 [23]: > 5.12 µM | IC50 [24]: > 5.12 µM | IC50 [25]: > 5.12 µM | IC50 [26]: > 5.12 µM | IC50 [27]: > 5.12 µM | IC50 [28]: > 5.12 µM | IC50 [29]: 0.0638 µM | IC50 [30]: > 5.12 µM | IC50 [31]: > 5.12 µM | IC50 [32]: > 5.12 µM | IC50 [33]: > 5.12 µM | IC50 [34]: > 5.12 µM | IC50 [35]: > 5.12 µM | IC50 [36]: < 0.02 µM | IC50 [37]: > 5.12 µM | IC50 [38]: > 5.12 µM | IC50 [39]: > 5.12 µM | IC50 [40]: > 5.12 µM | IC50 [41]: > 5.12 µM | IC50 [42]: > 5.12 µM | IC50 [43]: 1.7 µM | IC50 [44]: > 5.12 µM | IC50 [45]: > 5.12 µM | IC50 [46]: > 5.12 µM | IC50 [47]: > 5.12 µM | IC50 [48]: > 5.12 µM

From ChEMBL document CHEMBL1201861, “Genomics of Drug Sensitity in Cancer screening data, Wellcome Trust Sanger Institute”
